Results published in paper PMC11345841, “Exploring 2-Sulfonylpyrimidine Warheads as Acrylamide Surrogates for Targeted Covalent Inhibition: A BTK Story” (Journal of Medicinal Chemistry, 2024).
Like-named read-outs stand apart in the source and are kept apart here.

What was measured:
Test in all cases: KINOMEscan ScanTK
Assay type in all cases: binding
[1] = target: T1, ABL1-nonphosphorylated (Homo sapiens, UniProt P00519)
T1 construct: purchased Eurofins DiscoverX KINOMEscan (scanTK)

[2] = target: T2, BTK (Homo sapiens, UniProt Q06187); conditions: for remaining binding at 1 µM: BTK; for inhibition at 1 µM: ScanTK
T2 construct: purchased Eurofins DiscoverX KINOMEscan (scanTK)

[3] = target: T3, EGFR(L861Q) (Homo sapiens, UniProt P00533, L861Q)
T3 construct: purchased Eurofins DiscoverX KINOMEscan (scanTK)

[4] = target: T4, EGFR(T790M) (Homo sapiens, UniProt P00533, T790M)
T4 construct: purchased Eurofins DiscoverX KINOMEscan (scanTK)

[5] = target: T5, FRK (Homo sapiens, UniProt P42685)
T5 construct: purchased Eurofins DiscoverX KINOMEscan (scanTK)

[6] = target: T6, IGF1R (Homo sapiens, UniProt P08069)
T6 construct: purchased Eurofins DiscoverX KINOMEscan (scanTK)

[7] = target: T7, MST1R (Homo sapiens, UniProt Q04912)
T7 construct: purchased Eurofins DiscoverX KINOMEscan (scanTK)

[8] = target: T8, PDGFRA (Homo sapiens, UniProt P16234)
T8 construct: purchased Eurofins DiscoverX KINOMEscan (scanTK)

[9] = target: T9, TEC (Homo sapiens, UniProt P42680)
T9 construct: purchased Eurofins DiscoverX KINOMEscan (scanTK)
T9 sequence (P42680 1-631): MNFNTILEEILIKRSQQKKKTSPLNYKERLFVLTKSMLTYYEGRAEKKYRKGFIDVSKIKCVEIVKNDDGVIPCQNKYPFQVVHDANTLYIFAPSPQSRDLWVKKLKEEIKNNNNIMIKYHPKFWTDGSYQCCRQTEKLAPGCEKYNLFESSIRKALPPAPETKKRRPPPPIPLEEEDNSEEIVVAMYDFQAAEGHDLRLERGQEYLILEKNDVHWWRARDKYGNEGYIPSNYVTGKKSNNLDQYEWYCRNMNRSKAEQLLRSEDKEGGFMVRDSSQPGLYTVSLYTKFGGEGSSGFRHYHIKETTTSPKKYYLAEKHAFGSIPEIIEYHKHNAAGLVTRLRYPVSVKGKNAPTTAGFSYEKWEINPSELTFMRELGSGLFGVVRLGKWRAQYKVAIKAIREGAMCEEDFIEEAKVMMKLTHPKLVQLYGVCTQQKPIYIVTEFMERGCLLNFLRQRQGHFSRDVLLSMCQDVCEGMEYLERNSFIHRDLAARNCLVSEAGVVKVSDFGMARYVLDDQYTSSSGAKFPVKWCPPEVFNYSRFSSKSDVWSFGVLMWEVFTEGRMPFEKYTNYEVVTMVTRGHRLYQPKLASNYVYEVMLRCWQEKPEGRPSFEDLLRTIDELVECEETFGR

[10] = target: T10, TYRO3 (Homo sapiens, UniProt Q06418)
T10 construct: purchased Eurofins DiscoverX KINOMEscan (scanTK)
T10 sequence (Q06418 41-890): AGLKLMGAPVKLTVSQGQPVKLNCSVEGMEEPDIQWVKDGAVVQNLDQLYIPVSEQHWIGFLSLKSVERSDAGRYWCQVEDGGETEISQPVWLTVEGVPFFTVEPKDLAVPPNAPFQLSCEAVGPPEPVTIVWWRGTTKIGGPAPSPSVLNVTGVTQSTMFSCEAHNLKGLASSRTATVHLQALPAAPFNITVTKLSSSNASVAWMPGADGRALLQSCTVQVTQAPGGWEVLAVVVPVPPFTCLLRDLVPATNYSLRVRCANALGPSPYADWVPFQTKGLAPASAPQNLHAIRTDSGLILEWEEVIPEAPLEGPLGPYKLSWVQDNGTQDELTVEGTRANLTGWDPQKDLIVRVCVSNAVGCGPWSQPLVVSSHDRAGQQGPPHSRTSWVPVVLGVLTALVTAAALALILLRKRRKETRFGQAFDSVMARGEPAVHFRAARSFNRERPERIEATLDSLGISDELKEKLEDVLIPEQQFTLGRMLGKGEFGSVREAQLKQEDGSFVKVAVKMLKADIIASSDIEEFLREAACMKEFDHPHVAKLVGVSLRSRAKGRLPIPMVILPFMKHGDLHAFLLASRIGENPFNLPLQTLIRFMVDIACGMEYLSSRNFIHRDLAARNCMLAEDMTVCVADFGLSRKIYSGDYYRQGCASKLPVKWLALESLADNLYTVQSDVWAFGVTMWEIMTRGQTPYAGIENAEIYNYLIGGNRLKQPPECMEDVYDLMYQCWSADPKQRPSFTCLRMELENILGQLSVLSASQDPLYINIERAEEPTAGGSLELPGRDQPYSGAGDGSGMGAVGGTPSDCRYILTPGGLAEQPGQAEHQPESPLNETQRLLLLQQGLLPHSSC

[11] = target: T11, ZAP70 (Homo sapiens, UniProt P43403)
T11 construct: purchased Eurofins DiscoverX KINOMEscan (scanTK)
T11 sequence (P43403 1-619): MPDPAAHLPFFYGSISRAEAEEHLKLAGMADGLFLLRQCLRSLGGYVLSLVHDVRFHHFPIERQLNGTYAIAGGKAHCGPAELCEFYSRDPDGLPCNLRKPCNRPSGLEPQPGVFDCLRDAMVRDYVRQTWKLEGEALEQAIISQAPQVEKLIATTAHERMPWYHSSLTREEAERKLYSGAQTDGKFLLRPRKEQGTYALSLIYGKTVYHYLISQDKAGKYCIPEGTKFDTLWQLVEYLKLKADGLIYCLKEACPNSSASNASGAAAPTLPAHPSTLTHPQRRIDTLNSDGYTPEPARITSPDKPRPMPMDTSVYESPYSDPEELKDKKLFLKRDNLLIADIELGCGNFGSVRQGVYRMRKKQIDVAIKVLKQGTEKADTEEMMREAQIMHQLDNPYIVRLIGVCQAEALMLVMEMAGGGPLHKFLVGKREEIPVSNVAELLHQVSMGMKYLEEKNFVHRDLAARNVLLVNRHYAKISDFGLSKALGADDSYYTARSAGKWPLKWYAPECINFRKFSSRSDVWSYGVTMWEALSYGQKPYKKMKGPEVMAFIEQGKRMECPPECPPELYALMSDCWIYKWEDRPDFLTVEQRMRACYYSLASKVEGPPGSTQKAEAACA

[12] = @1000nM, read-out: % difference (compound - Ib %Control)

T5 sequence (P42685 whole entry): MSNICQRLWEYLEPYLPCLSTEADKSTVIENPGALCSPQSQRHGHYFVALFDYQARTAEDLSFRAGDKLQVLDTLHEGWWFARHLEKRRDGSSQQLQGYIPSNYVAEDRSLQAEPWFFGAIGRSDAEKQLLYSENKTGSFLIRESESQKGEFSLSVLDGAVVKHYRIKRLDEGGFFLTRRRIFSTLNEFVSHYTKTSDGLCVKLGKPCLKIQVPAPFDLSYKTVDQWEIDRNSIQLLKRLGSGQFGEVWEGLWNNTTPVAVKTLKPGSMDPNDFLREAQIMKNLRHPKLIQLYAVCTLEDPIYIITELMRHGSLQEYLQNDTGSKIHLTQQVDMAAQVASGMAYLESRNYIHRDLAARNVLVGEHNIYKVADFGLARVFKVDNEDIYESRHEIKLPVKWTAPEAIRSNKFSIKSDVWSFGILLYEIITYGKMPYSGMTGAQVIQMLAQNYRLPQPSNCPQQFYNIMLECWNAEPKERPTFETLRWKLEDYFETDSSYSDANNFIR
T2 sequence (Q06187 whole entry): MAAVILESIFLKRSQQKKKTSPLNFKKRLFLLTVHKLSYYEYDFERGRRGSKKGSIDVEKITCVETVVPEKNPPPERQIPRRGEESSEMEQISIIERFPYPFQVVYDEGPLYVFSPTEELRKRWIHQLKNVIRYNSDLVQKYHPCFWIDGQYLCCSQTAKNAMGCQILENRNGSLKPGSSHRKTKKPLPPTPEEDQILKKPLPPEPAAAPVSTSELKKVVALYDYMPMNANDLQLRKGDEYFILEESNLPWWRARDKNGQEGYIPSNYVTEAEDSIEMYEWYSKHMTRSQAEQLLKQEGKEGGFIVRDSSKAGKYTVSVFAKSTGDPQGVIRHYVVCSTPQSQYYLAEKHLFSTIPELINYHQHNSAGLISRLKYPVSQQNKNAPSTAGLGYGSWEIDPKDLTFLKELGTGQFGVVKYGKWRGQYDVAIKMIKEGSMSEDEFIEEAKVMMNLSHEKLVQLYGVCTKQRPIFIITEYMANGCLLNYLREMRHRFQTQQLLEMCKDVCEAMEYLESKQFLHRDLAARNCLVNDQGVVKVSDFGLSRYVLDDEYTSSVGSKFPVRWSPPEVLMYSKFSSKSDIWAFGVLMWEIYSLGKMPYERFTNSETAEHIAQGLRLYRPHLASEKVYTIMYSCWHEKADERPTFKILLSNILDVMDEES
T6 sequence (P08069 31-1367): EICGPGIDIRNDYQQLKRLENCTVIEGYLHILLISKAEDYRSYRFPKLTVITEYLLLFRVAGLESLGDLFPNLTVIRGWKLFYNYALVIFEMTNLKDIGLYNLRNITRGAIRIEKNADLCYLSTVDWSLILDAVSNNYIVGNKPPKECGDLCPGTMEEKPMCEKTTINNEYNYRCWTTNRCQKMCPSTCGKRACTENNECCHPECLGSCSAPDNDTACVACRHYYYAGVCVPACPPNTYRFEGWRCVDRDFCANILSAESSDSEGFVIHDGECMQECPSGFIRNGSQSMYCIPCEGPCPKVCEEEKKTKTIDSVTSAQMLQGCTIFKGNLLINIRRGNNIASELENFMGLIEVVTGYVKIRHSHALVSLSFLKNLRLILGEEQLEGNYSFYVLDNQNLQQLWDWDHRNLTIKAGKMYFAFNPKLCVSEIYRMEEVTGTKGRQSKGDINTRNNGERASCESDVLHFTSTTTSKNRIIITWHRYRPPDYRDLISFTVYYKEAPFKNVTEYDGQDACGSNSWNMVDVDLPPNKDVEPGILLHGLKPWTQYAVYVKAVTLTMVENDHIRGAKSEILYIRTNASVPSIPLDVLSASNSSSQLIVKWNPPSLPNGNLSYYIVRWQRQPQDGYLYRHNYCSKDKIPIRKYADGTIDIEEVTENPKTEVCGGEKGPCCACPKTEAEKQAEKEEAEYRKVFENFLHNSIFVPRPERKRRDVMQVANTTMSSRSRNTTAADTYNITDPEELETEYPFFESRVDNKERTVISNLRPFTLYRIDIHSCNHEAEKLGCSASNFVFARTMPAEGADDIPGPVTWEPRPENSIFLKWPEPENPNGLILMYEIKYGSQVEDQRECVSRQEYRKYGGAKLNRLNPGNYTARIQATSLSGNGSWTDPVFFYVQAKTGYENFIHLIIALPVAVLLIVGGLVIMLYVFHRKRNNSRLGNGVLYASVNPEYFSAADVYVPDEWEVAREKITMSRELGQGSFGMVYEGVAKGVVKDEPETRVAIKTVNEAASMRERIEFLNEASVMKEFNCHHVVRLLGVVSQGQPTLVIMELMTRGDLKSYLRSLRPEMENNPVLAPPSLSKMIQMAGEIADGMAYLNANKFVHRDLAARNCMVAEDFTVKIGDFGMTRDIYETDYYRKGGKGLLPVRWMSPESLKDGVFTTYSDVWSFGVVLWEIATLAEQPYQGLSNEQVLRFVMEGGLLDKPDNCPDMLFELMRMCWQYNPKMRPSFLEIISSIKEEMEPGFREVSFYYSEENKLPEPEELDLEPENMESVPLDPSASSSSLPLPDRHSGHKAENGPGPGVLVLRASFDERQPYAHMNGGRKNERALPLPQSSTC
T3 sequence (P00533 25-1210 L861Q): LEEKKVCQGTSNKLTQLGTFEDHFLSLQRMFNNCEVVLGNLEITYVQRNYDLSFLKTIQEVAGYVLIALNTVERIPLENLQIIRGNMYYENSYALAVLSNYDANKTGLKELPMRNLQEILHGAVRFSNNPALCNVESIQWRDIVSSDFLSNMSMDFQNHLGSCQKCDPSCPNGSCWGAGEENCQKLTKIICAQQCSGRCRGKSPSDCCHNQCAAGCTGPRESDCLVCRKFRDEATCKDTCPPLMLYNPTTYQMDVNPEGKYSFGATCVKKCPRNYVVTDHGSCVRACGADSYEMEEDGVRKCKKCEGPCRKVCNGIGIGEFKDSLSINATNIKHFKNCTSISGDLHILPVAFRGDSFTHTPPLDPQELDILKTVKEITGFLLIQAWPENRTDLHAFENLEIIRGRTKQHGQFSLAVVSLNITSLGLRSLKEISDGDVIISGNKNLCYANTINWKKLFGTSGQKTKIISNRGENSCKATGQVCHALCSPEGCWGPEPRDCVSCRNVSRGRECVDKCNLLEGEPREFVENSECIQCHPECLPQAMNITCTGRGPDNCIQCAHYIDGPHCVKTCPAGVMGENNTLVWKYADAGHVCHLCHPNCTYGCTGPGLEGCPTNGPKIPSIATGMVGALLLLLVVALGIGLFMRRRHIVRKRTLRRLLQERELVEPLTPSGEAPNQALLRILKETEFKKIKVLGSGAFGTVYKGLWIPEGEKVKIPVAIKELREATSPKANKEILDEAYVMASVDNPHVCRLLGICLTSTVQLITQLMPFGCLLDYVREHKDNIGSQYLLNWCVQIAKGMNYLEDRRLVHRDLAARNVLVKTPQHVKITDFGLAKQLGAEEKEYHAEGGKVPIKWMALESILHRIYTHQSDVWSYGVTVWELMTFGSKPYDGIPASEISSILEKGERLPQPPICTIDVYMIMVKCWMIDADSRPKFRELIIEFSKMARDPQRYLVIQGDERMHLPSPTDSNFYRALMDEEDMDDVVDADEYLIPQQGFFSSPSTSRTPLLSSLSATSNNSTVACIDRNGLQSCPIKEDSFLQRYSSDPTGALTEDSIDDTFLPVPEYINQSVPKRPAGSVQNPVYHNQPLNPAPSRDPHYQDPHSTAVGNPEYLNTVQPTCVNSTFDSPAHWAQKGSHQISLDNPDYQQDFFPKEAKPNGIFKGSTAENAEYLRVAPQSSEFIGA
T4 sequence (P00533 25-1210 T790M): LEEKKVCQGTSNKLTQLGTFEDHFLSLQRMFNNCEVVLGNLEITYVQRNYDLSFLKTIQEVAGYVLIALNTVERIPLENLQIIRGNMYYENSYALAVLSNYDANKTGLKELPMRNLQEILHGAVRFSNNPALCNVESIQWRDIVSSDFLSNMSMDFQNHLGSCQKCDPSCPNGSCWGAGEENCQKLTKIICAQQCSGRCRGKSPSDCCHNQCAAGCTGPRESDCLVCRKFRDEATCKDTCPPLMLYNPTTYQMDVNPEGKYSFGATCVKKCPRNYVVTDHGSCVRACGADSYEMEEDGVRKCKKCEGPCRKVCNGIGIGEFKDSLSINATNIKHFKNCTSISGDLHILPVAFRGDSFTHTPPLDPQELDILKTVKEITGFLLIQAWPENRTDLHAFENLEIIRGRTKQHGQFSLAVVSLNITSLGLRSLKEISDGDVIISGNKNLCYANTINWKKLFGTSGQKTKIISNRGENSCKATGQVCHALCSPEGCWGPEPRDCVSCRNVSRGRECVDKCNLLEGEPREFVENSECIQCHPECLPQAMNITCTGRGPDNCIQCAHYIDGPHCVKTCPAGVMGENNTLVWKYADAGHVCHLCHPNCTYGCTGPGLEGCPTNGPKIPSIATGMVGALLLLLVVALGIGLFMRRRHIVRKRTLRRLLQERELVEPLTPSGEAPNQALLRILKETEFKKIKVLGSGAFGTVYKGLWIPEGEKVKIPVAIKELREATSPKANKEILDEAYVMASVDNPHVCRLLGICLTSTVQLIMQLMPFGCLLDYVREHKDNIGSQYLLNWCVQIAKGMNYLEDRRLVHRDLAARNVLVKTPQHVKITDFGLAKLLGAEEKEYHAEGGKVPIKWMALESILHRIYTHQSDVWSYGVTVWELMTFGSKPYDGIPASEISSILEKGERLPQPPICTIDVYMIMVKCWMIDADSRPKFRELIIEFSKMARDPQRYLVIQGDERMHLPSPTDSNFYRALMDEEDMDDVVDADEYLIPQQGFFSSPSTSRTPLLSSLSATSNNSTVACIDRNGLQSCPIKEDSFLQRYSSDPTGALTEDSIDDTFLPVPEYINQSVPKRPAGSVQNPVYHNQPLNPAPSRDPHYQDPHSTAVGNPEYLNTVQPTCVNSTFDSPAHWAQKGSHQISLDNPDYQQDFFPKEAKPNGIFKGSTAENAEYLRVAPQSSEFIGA

SMILES | difference in %Control from reference compound Ib at 1 µM ([1]; @1000nM) [%] | remaining binding at 1 µM ([1]; @1000nM, read-out: %Control) [%] | remaining binding at 1 µM ([1]; read-out: %Control @1000nM) [%] | remaining binding at 1 µM [2, 12] [%] | remaining binding at 1 µM ([2]; @1000nM, read-out: %Control) [%] | remaining binding at 1 µM ([2]; read-out: %Control @1000nM) [%] | inhibition at 1 µM [2] [%] | difference in % of control versus compound Ib at 1 µM ([3]; @1000nM) [%] | remaining binding at 1 µM ([3]; @1000nM, read-out: %Control) [%] | remaining binding at 1 µM ([3]; read-out: %Control @1000nM) [%] | remaining binding at 1 µM ([5]; @1000nM, read-out: %Control) [%] | remaining binding at 1 µM ([5]; read-out: %Control @1000nM) [%] | remaining binding at 1 µM ([6]; @1000nM, read-out: %Control) [%] | remaining binding at 1 µM ([6]; read-out: %Control @1000nM) [%] | remaining binding at 1 µM ([8]; @1000nM, read-out: %Control) [%] | remaining binding at 1 µM ([8]; read-out: %Control @1000nM) [%] | remaining binding at 1 µM ([9]; @1000nM, read-out: %Control) [%] | remaining binding at 1 µM ([9]; read-out: %Control @1000nM) [%] | remaining binding at 1 µM ([10]; @1000nM, read-out: %Control) [%] | remaining binding at 1 µM ([10]; read-out: %Control @1000nM) [%] | other results
CCOC(=O)c1cnc(S(C)(=O)=O)nc1N1CCC[C@@H](n2nc(-c3ccc(Oc4ccccc4)cc3)c3c(N)ncnc32)C1 [Compound 8c, Ethyl (R)-4-(3-(4-Amino-3-(4-phenoxyphenyl)-1H-pyrazolo[3,4-d]pyrimidin-1-yl)piperidin-1-yl)-2-(methylsulfonyl)pyrimidine-5-carboxylate] | 36.5 | 45 | 45 | 18 | 18 | 18 | 82 | 81.2 | 82 | 82 | 76 | 76 | 92 | 92 | 91 | 91 | 53 | 53 | 40 | 40 | difference in % of control versus compound Ib at 1 µM ([4]; @1000nM): 72.5%; remaining binding at 1 µM ([4]; @1000nM, read-out: %Control): 73%; remaining binding at 1 µM ([4]; read-out: %Control @1000nM): 73%; difference in %Control versus compound Ib at 1 µM ([5]; @1000nM): 66.7%; % Control difference from reference compound Ib at 1 µM ([6]; @1000nM): -4%; remaining binding at 1 µM ([7]; @1000nM, read-out: %Control): 98%; remaining binding at 1 µM ([7]; read-out: %Control @1000nM): 98%; remaining binding at 1 µM ([11]; @1000nM, read-out: %Control): 100%; remaining binding at 1 µM ([11]; read-out: %Control @1000nM): 100%
Cc1cnc(S(C)(=O)=O)nc1N1CCCC(n2nc(-c3ccc(Oc4ccccc4)cc3)c3c(N)ncnc32)C1 (stereo not shown) [Compound 8a, 1-(1-(5-Methyl-2-(methylsulfonyl)pyrimidin-4-yl)piperidin-3-yl)-3-(4-phenoxyphenyl)-1H-pyrazolo[3,4-d]pyrimidin-4-amine] | 38.5 | 47 | 47 | 0.1 | 0.1 | 0.1 | > 99 | 81.2 | 82 | 82 | 48 | 48 | 100 | 100 | 72 | 72 | 27 | 27 | 40 | 40 | difference in % of control versus compound Ib at 1 µM ([4]; @1000nM): 69.5%; remaining binding at 1 µM ([4]; @1000nM, read-out: %Control): 70%; remaining binding at 1 µM ([4]; read-out: %Control @1000nM): 70%; difference in %Control versus compound Ib at 1 µM ([5]; @1000nM): 38.7%; % Control difference from reference compound Ib at 1 µM ([6]; @1000nM): 4%; remaining binding at 1 µM ([7]; @1000nM, read-out: %Control): 100%; remaining binding at 1 µM ([7]; read-out: %Control @1000nM): 100%; remaining binding at 1 µM ([11]; @1000nM, read-out: %Control): 92%; remaining binding at 1 µM ([11]; read-out: %Control @1000nM): 92%
C=CC(=O)N1CCC[C@@H](n2nc(-c3ccc(Oc4ccccc4)cc3)c3c(N)ncnc32)C1 [Compound 1g, Ibrutinib, reference compound] |  |  |  |  |  |  |  |  |  |  | 9.3 | 9.3 | 96 | 96 | 49 | 49 | 20 | 20 | 34 | 34 | 
COC(=O)c1cnc(S(C)(=O)=O)nc1N1CCCC(n2nc(-c3ccc(Oc4ccccc4)cc3)c3c(N)ncnc32)C1 (stereo not shown) [Compound 8b, Methyl 4-(3-(4-Amino-3-(4-phenoxyphenyl)-1H-pyrazolo[3,4-d]pyrimidin-1-yl)piperidin-1-yl)-2-(methylsulfonyl)pyrimidine-5-carboxylate] | 56.5 | 65 | 65 | 0.75 | 0.75 | 0.75 | > 99 | 56.2 | 57 | 57 | 79 | 79 | 94 | 94 | 90 | 90 | 32 | 32 | 33 | 33 | difference in % of control versus compound Ib at 1 µM ([4]; @1000nM): 41.5%; remaining binding at 1 µM ([4]; @1000nM, read-out: %Control): 42%; remaining binding at 1 µM ([4]; read-out: %Control @1000nM): 42%; difference in %Control versus compound Ib at 1 µM ([5]; @1000nM): 69.7%; % Control difference from reference compound Ib at 1 µM ([6]; @1000nM): -2%; remaining binding at 1 µM ([7]; @1000nM, read-out: %Control): 96%; remaining binding at 1 µM ([7]; read-out: %Control @1000nM): 96%; remaining binding at 1 µM ([11]; @1000nM, read-out: %Control): 94%; remaining binding at 1 µM ([11]; read-out: %Control @1000nM): 94%
